± gives the standard deviation of the averaged measurements.
What was measured:
MDV3100 = compound: CNC(=O)c1ccc(N2C(=S)N(c3ccc(C#N)c(C(F)(F)F)c3)C(=O)C2(C)C)cc1F [MDV3100]; experiment: surviving fraction relative to DMSO-only wells; higher = less growth inhibition; conditions: exposure time: 5 days
Method in brief: (§1)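 Viability values are CellTiter-Glo luminescence readings, given as surviving fraction against the median of DMSO-only wells. The readings were taken after 10 minutes at room temperature, following five days of continuous exposure to inhibitors at 0.5, 1, 5, 10, 50, 100, 500 and 1000 nM that began 24 hours after log-phase tumour cell lines were seeded at 250–500 cells per well in 384-well plates. Every line was screened three times and kept only if replicate Pearson r >0.7 and median Z' >0.3.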

TIOGUANINE = compound: Nc1nc2[nH]cnc2c(=S)[nH]1 [TIOGUANINE]; experiment: as above; conditions: exposure time: 5 days
Method in brief: as §1

Test System | surviving fraction (MDV3100; 0.5 nM) | surviving fraction (MDV3100; 1 nM) | surviving fraction (MDV3100; 5 nM) | surviving fraction (MDV3100; 10 nM) | surviving fraction (MDV3100; 50 nM) | surviving fraction (MDV3100; 100 nM) | surviving fraction (MDV3100; 500 nM) | surviving fraction (MDV3100; 1000 nM) | surviving fraction (TIOGUANINE; 0.5 nM) | surviving fraction (TIOGUANINE; 1 nM) | surviving fraction (TIOGUANINE; 5 nM) | surviving fraction (TIOGUANINE; 10 nM) | surviving fraction (TIOGUANINE; 50 nM) | surviving fraction (TIOGUANINE; 100 nM) | surviving fraction (TIOGUANINE; 500 nM) | surviving fraction (TIOGUANINE; 1000 nM)
SG31 HEADNECK | 0.928 ± 0.059 | 1.06 ± 0.037 | 1.01 ± 0.14 | 1.02 ± 0.14 | 1.07 ± 0.057 | 0.969 ± 0.17 | 1.18 ± 0.18 | 1.06 ± 0.028 | 0.97 ± 0.023 | 1 ± 0.085 | 1 ± 0.16 | 1.01 ± 0.18 | 0.986 ± 0.073 | 0.871 ± 0.1 | 1.2 ± 0.25 | 0.928 ± 0.17
DU4475 BREAST | 0.806 ± 0.11 | 0.938 ± 0.086 | 0.832 ± 0.098 | 0.992 ± 0.052 | 0.958 ± 0.074 | 0.907 ± 0.089 | 0.965 ± 0.11 | 0.933 ± 0.046 | 0.746 ± 0.054 | 1 ± 0.31 | 0.784 ± 0.2 | 0.798 ± 0.17 | 0.687 ± 0.23 | 0.743 ± 0.24 | 0.721 ± 0.4 | 0.704 ± 0.29
HCC202 BREAST | 0.968 ± 0.098 | 0.983 ± 0.18 | 0.865 ± 0.21 | 0.97 ± 0.34 | 1.1 ± 0.043 | 0.86 ± 0.12 | 0.999 ± 0.25 | 0.623 ± 0.085 | 1.28 ± 0.11 | 1.25 ± 0.14 | 1.32 ± 0.35 | 1.3 ± 0.28 | 1.32 ± 0.14 | 1.78 ± 0.35 | 1.2 ± 0.19 | 1.24 ± 0.067
KPD BONE | 0.955 ± 0.071 | 0.975 ± 0.023 | 0.997 ± 0.048 | 0.985 ± 0.044 | 1.04 ± 0.058 | 1.04 ± 0.067 | 0.977 ± 0.19 | 0.938 ± 0.015 | 0.998 ± 0.045 | 0.985 ± 0.098 | 0.989 ± 0.049 | 1 ± 0.047 | 1.03 ± 0.084 | 1.05 ± 0.027 | 1.03 ± 0.019 | 0.993 ± 0.059
G292 BONE | 0.9907 ± 0.009 | 1.03 ± 0.02 | 1.03 ± 0.059 | 1.02 ± 0.013 | 0.956 ± 0.032 | 0.985 ± 0.036 | 0.961 ± 0.013 | 0.865 ± 0.024 | 0.964 ± 0.034 | 0.998 ± 0.045 | 1 ± 0.021 | 0.984 ± 0.036 | 1.01 ± 0.023 | 1.02 ± 0.016 | 0.948 ± 0.011 | 0.949 ± 0.035
COLO320DM LARGE INTESTINE | 1.18 ± 0.14 | 0.995 ± 0.087 | 1.13 ± 0.022 | 0.533 ± 0.021 | 1.13 ± 0.086 | 1.042 ± 0.0052 | 1.12 ± 0.057 | 0.754 ± 0.052 | 1.13 ± 0.03 | 1.1 ± 0.056 | 1.003 ± 0.0076 | 1.09 ± 0.067 | 1.03 ± 0.019 | 1.09 ± 0.049 | 1.078 ± 0.0053 | 1.04 ± 0.049
PCI30 HEADNECK | 0.908 ± 0.034 | 0.831 ± 0.075 | 0.954 ± 0.071 | 1.01 ± 0.08 | 1.09 ± 0.056 | 1 ± 0.014 | 0.861 ± 0.088 | 0.945 ± 0.036 | 0.892 ± 0.097 | 0.847 ± 0.013 | 0.978 ± 0.097 | 1.02 ± 0.047 | 1.02 ± 0.063 | 1.03 ± 0.016 | 0.918 ± 0.045 | 0.88 ± 0.072
JURKAT HAEMATOPOIETIC AND LYMPHOID TISSUE | 1.095 ± 0.0049 | 1.1 ± 0.02 | 1.09 ± 0.022 | 1.06 ± 0.018 | 1.05 ± 0.015 | 1.06 ± 0.031 | 1 ± 0.027 | 0.997 ± 0.039 | 1.05 ± 0.034 | 1.07 ± 0.032 | 1.07 ± 0.04 | 1.043 ± 0.0097 | 1.02 ± 0.039 | 1.04 ± 0.018 | 1.01 ± 0.012 | 0.565 ± 0.013
SNU475 LIVER | 1.03 ± 0.034 | 0.903 ± 0.024 | 1 ± 0.039 | 0.438 ± 0.011 | 1.01 ± 0.018 | 0.902 ± 0.016 | 0.974 ± 0.014 | 0.516 ± 0.02 | 0.949 ± 0.025 | 0.963 ± 0.02 | 0.961 ± 0.036 | 0.957 ± 0.028 | 0.966 ± 0.099 | 0.992 ± 0.025 | 0.899 ± 0.054 | 0.916 ± 0.012
22RV1 PROSTATE | 0.953 ± 0.067 | 0.954 ± 0.061 | 0.997 ± 0.051 | 0.938 ± 0.066 | 0.934 ± 0.12 | 0.968 ± 0.04 | 0.862 ± 0.21 | 0.781 ± 0.27 | 0.97 ± 0.042 | 0.971 ± 0.042 | 0.99 ± 0.049 | 0.999 ± 0.0061 | 1.06 ± 0.067 | 0.99 ± 0.039 | 0.988 ± 0.079 | 0.94 ± 0.042
OSHN BONE | 1.04 ± 0.02 | 1.02 ± 0.019 | 1.025 ± 0.0047 | 1.01 ± 0.015 | 1.067 ± 0.0085 | 1.07 ± 0.04 | 1.07 ± 0.026 | 1.041 ± 0.0068 | 1.01 ± 0.037 | 1.02 ± 0.026 | 1.01 ± 0.035 | 1.02 ± 0.034 | 1.02 ± 0.048 | 1.04 ± 0.038 | 1.01 ± 0.039 | 0.9787 ± 0.007
